Where two headings read alike, the source gives them in different places.
What was measured:
HPK1 = HPK1 (Homo sapiens, UniProt Q92918); experiment: HPK1 Biochemical Assay (ADP-Glo luminescence; low ATP 10 μM or high ATP 200 μM)
[1] = tested on: p-SLP-76 (Ser376) in Jurkat cells; experiment: pSLP76 Cellular Assay (AlphaLISA SureFire Ultra p-SLP-76 (Ser376), anti-CD3 activated Jurkat cells); type: cell-based; conditions: Homo sapiens, read-out: Cellular Potency
Protocol: pSLP76 cellular assay was performed using Jurkat cells and the AlphaLISA SureFire Ultra p-SLP-76 (Ser376) Assay Kit (PerkinElmer). Dose-response assays were performed in Greiner® Low Volume 384-well assay plates containing 200 nL of 22 serial 2-fold compound dilutions using Bravo and Echo. Jurkat cells were grown in RPMI-1640 supplemented with 10% FBS and PSG. The day prior to the assay, the cells were collected, and serum starved overnight in Opti-MEM. The day of the assay, the cells were collected and resuspended in HBSS. 100,000 cells/well were added to the compound plates and after a short spin, the plates were incubated at 37° C. for 1 h. The cells were activated by adding 10 μL of 0.025 mg/ml anti-CD3. Plates were then incubated at 37° C. for 45 min. Stimulation was terminated by adding […], followed by a brief centrifugation and 60 min of shaking at 300 rpm. Cell lysates (10 μL) were transferred to 384-well White Opti-plates and the samples were processed according to the manufacturer's directions. The fluorescence signal from pSLP76 was measured at 570 nm using Envision plate reader. IC50 values were determined by fitting the data to a standard 4-parameter logistic equation. The results are summarized in the Cellular Potency columns in Tables 4 and 5 below (Cellular Potency).

[2] = 2 nM HPK1, 10 μM ATP, read-out: Biochemical Potency (low ATP)
[3] = Jurkat cells, anti-CD3 stimulation, pSLP76
[4] = HPK1 ADP-Glo assay, high ATP (200 μM ATP, 5 nM HPK1), read-out: Biochemical Potency (high ATP)
[5] = pSLP76 (Ser376) AlphaLISA, anti-CD3 activated Jurkat cells
[6] = HPK1 ADP-Glo assay, low ATP (10 μM ATP, 2 nM HPK1), read-out: Biochemical Potency (low ATP)

Chain of HPK1 (Q92918 whole entry, species assumed): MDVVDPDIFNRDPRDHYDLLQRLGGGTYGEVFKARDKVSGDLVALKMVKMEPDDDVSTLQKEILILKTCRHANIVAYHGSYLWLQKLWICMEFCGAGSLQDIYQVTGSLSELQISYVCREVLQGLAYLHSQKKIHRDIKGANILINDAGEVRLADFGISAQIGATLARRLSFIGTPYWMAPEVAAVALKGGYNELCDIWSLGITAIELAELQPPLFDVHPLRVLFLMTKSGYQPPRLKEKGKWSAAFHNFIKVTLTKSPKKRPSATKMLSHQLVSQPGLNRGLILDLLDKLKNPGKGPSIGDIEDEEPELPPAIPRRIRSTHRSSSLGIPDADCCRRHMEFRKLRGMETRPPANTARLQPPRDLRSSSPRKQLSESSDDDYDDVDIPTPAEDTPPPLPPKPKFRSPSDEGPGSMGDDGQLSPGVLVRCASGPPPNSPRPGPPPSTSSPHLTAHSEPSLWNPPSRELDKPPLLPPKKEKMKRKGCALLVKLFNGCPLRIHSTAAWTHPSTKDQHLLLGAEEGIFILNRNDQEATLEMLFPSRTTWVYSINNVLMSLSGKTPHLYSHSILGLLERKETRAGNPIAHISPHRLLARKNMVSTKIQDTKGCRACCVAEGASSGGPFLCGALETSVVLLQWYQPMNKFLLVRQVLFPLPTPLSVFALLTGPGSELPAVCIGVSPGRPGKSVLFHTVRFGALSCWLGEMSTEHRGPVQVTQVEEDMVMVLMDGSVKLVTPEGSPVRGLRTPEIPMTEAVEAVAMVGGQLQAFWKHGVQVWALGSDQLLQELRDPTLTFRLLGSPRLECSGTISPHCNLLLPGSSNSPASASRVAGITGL

IC50 (HPK1; [2]) | IC50 [1, 3] | IC50 (HPK1; [4]) | IC50 [1, 5] | IC50 (HPK1; [6]) | SMILES
< 100 nM | 100 to 1000 nM | – | – | – | Cc1cccnc1-c1nc2cc(Nc3cncc(N4C[C@@H]5C[C@H]4CN5)n3)ncc2s1 [Example 144, 6-[(1S,4S)-2,5-Diazabicyclo[2.2.1]heptan-2-yl]-N-[2-(3-methylpyridin-2-yl)-[1,3]thiazolo[5,4-c]pyridin-6-yl]pyrazin-2-amine]
< 100 nM | 100 to 1000 nM | – | – | – | Cc1cccnc1-c1nc2cc(Nc3ccc(N4CCOCC4)c(CN4CCCC4)n3)ncc2s1 [Example 63, N-[2-(3-Methylpyridin-2-yl)-[1,3]thiazolo[5,4-c]pyridin-6-yl]-5-(morpholin-4-yl)-6-[(pyrrolidin-1-yl)methyl]pyridin-2-amine]
< 100 nM | 1000 to 5000 nM | – | – | – | C[C@H]1COCCN1c1nc2cc(Nc3ccc(C4CCOCC4)c(CN4CCCC4)n3)ncc2s1 [Example 235, N-{2-[(3S)-3-Methylmorpholin-4-yl]-[1,3]thiazolo[5,4-c]pyridin-6-yl}-5-(oxan-4-yl)-6-[(pyrrolidin-1-yl)methyl]pyridin-2-amine]
< 100 nM | 100 to 1000 nM | – | – | – | Cc1cccc(F)c1-c1nc2cc(Nc3ccc(N4CCC(O)CC4)c(CN(C)C)n3)ncc2s1 [Example 18, 1-{2-[(Dimethylamino)methyl]-6-{[2-(2-fluoro-6-methylphenyl)-[1,3]thiazolo[5,4-c]pyridin-6-yl]amino}pyridin-3-yl}piperidin-4-ol]
– | – | < 100 nM | < 100 nM | – | Cc1cc(Nc2cc3nc(-c4cnn5c4CN(S(C)(=O)=O)CC5)sc3cn2)nc(N2C[C@@H]3C[C@H]2CN3C)n1 [Example 570]
< 100 nM | 1000 to 5000 nM | – | – | – | CC(C)(N)c1nc(Nc2cc3nc(-c4c(F)cccc4F)sc3cn2)ccc1N1CCOCC1 [Example 269, 6-(2-Aminopropan-2-yl)-N-[2-(2,6-difluorophenyl)-[1,3]thiazolo[5,4-c]pyridin-6-yl]-5-(morpholin-4-yl)pyridin-2-amine]
– | – | < 100 nM | 100 to 1000 nM | – | Cc1cc(Nc2cc3nc(-c4ccnc(N5CCO[C@H](C)C5)c4)sc3cn2)nc(N2C[C@@H]3C[C@H]2CN3CCO)n1 [Example 451]
– | – | < 100 nM | 1000 to 5000 nM | – | Cc1cc(Nc2cc3nc(-c4ccncc4O[C@H]4CCOC4)sc3cn2)nc(N2C[C@@H]3C[C@H]2CN3C)n1 [Example 481]
< 100 nM | 1000 to 5000 nM | – | – | – | Cc1cc(-c2nc3cc(Nc4cccc(N5CCNCC5)n4)ncc3s2)ccn1 [Example 85, N-[2-(2-Methylpyridin-4-yl)-[1,3]thiazolo[5,4-c]pyridin-6-yl]-6-(piperazin-1-yl)pyridin-2-amine]
– | – | < 100 nM | < 100 nM | – | CCN(C)C(=O)c1cccc(-c2nc3cc(Nc4cc(C)nc(N5C[C@@H]6C[C@H]5CN6CCO)n4)ncc3s2)c1 [Example 505]
< 100 nM | > 5000 nM | – | – | – | Cc1ccc(-c2nc3cc(Nc4cccc(N5C[C@@H]6C[C@H]5CN6C)n4)ncc3s2)c(C)n1 [Example 129, N-[2-(2,6-Dimethylpyridin-3-yl)-[1,3]thiazolo[5,4-c]pyridin-6-yl]-6-[(1S,4S)-5-methyl-2,5-diazabicyclo[2.2.1]heptan-2-yl]pyridin-2-amine]
– | – | < 100 nM | < 100 nM | – | Cc1cc(Nc2cc3nc(-c4cccc(C(=O)N(C)C)c4)sc3cn2)nc(N2C[C@@H]3C[C@H]2CN3Cc2ccccc2)n1 [Example 496]
– | – | < 100 nM | 100 to 1000 nM | – | OCCN1C[C@@H]2C[C@H]1CN2c1nc(Nc2cc3nc(-c4cnn(CC5CC5)c4)sc3cn2)ccc1F [Example 424]
< 100 nM | 100 to 1000 nM | – | – | – | c1cncc(-c2nc3cc(Nc4ccc(C5CCOCC5)c(CN5CCCC5)n4)ncc3s2)c1 [Example 225, 5-(Oxan-4-yl)-N-[2-(pyridin-3-yl)-[1,3]thiazolo[5,4-c]pyridin-6-yl]-6-[(pyrrolidin-1-yl)methyl]pyridin-2-amine]
– | – | < 100 nM | 100 to 1000 nM | – | Cc1cc(Nc2cc3nc(-c4cccc(C(=O)N(C)C)c4)sc3cn2)nc(N2C[C@@H]3C[C@H]2CN3CC2CC2)n1 [Example 382]
– | – | < 100 nM | 100 to 1000 nM | – | CN1C[C@@H]2C[C@H]1CN2c1nccc(Nc2cc3nc(-c4cccc(S(=O)(=O)C5CC5)c4)sc3cn2)n1 [Example 405]
– | – | – | 1000 to 5000 nM | < 100 nM | Cc1cccnc1-c1nc2cc(Nc3ccc4c(n3)[C@@](C)(N)CC4)ncc2s1 [Example 576]

IC50 (HPK1; [2]) | IC50 [1, 3] | IC50 (HPK1; [4]) | IC50 [1, 5] | IC50 (HPK1; [6]) | SMILES
– | – | < 100 nM | 100 to 1000 nM | – | Cc1cc(Nc2cc3nc(-c4ccnc(N5CC6CCC(C5)O6)c4)sc3cn2)nc(N2C[C@@H]3C[C@H]2CN3CCO)n1 [Example 448]
– | – | < 100 nM | 5000 to 25000 nM | – | Cc1cc(Nc2cc3nc(-c4cccc(-c5ccn(C)n5)c4)sc3cn2)nc(N2C[C@@H]3C[C@H]2CN3C)n1 [Example 365]
– | – | < 100 nM | 100 to 1000 nM | – | Cc1cc(Nc2cc3nc(-c4ccnc(N5CCOCC5)c4)sc3cn2)nc(N2C[C@@H]3C[C@H]2CN3CCO)n1 [Example 458]
– | – | < 100 nM | < 100 nM | – | Cc1cc(Nc2cc3nc(-c4cc(C(=O)N(C)C)cc(C5CC5)c4)sc3cn2)nc(N2C[C@@H]3C[C@H]2CN3CCO)n1 [Example 552]
– | – | < 100 nM | < 100 nM | – | Cc1cc(Nc2cc3nc(-c4cccc(S(=O)(=O)CC5CC5)c4)sc3cn2)nc(N2C[C@@H]3C[C@H]2CN3CCO)n1 [Example 501]
– | – | < 100 nM | 1000 to 5000 nM | – | Cc1cc(Nc2cc3nc(-c4ccnc(O[C@H]5CCOC5)c4)sc3cn2)nc(N2C[C@@H]3C[C@H]2CN3C)n1 [Example 482]
< 100 nM | 100 to 1000 nM | – | – | – | CN(C)C(=O)c1cccc(-c2nc3cc(Nc4cccc(N5C[C@@H]6C[C@H]5CN6)n4)ncc3s2)c1 [Example 140, 3-[6-({6-[(1S,4S)-2,5-Diazabicyclo[2.2.1]heptan-2-yl]pyridin-2-yl}amino)-[1,3]thiazolo[5,4-c]pyridin-2-yl]-N,N-dimethylbenzamide]
– | – | < 100 nM | < 100 nM | – | Cc1cc(Nc2cc3nc(-c4cnn(C)c4C(C)(C)O)sc3cn2)nc(N2C[C@@H]3C[C@H]2CN3C)n1 [Example 309, 2-{4-[6-(2-{(1S,4S)-5-methyl-2,5-diazabicyclo[2.2.1]hept-2-yl}-6-methyl-4-pyrimidinylamino)-3-thia-1,5-diaza-2-indenyl]-1-methyl-5-pyrazolyl}-2-propanol]
– | – | < 100 nM | 100 to 1000 nM | – | Cc1cc(Nc2cc3nc(-c4ccnc(C5CCOCC5)c4)sc3cn2)nc(N2C[C@@H]3C[C@H]2CN3C)n1 [Example 480]
– | – | < 100 nM | < 100 nM | – | CCN1C[C@@H]2C[C@H]1CN2c1nc(C)cc(Nc2cc3nc(-c4nc(N)ccc4C)sc3cn2)n1 [Example 296, N-[2-(6-amino-3-methylpyridin-2-yl)-[1,3]thiazolo[5,4-c]pyridin-6-yl]-2-[(1S,4S)-5-ethyl-2,5-diazabicyclo[2.2.1]heptan-2-yl]-6-methylpyrimidin-4-amine]
< 100 nM | 1000 to 5000 nM | – | – | – | Cc1ccc(Nc2cc3nc(-c4ncccc4C)sc3cn2)nc1CN1CCC[C@@H]1CO [Example 49, [(2R)-1-[(3-Methyl-6-{[2-(3-methylpyridin-2-yl)-[1,3]thiazolo[5,4-c]pyridin-6-yl]amino}pyridin-2-yl)methyl]pyrrolidin-2-yl]methanol]
– | – | – | < 100 nM | < 100 nM | Cc1cccnc1-c1nc2cc(Nc3cc(C4CCOCC4)nc(N4C[C@@H]5C[C@H]4CN5)n3)ncc2s1 [Example 444]
– | – | < 100 nM | 100 to 1000 nM | – | Cc1cccnc1-c1nc2cc(Nc3cc(C(C)(C)O)nc(N4C[C@@H]5C[C@H]4CN5C)n3)ncc2s1 [Example 304, 2-{2-[(1S,4S)-5-methyl-2,5-diazabicyclo[2.2.1]heptan-2-yl]-6-{[2-(3-methylpyridin-2-yl)-[1,3]thiazolo[5,4-c]pyridin-6-yl]amino}pyrimidin-4-yl}propan-2-ol]
– | – | < 100 nM | < 100 nM | – | CCn1cc(-c2nc3cc(Nc4cc(C)nc(N5C[C@@H]6C[C@H]5CN6CCO)n4)ncc3s2)cn1 [Example 358]
< 100 nM | > 5000 nM | – | – | – | Cc1cccnc1-c1nc2cc(Nc3cccc(C4CCN(C)CC4)n3)ncc2s1 [Example 115, 6-(1-Methylpiperidin-4-yl)-N-[2-(3-methylpyridin-2-yl)-[1,3]thiazolo[5,4-c]pyridin-6-yl]pyridin-2-amine]
– | – | < 100 nM | < 100 nM | – | Cc1cc(Nc2cc3nc(-c4ncc(C)o4)sc3cn2)nc(N2C[C@@H]3C[C@H]2CN3CCO)n1 [Example 359]
– | – | < 100 nM | 1000 to 5000 nM | – | Cc1cc(Nc2cc3nc(-c4cnn(C5CCN(S(C)(=O)=O)CC5)c4)sc3cn2)nc(N2C[C@@H]3C[C@H]2CN3C)n1 [Example 572]

— patent US12649751B2 (Arcus Biosciences, Inc., priority 2022, dated 2026)
